Like-named read-outs stand apart in the source and are kept apart here.
What was measured:
[1] = biological target: T1, Aspergillus niger var. awamori strain ALKO243 (ATCC#38854) pH2.5 acid phosphatase, purified native enzyme, SEQ. ID. NO. 4 (Aspergillus awamori, UniProt P34755); test: Apparent Km of purified pH2.5 acid phosphatase (phosphate release, molybdate detection); assay type: biochemical; settings: 37° C., read-out: apparent Km for sodium phytate
T1 construct: Peptide #1110T is derived from a trypsin digestion of purified native pH2.5 acid phosphatase; endogenous in cells; host or cells: A. niger var. awamori strain ALKO243 (ATCC#38854), purified in house from the cell-free culture medium
T1 sequence (P34755 20-479): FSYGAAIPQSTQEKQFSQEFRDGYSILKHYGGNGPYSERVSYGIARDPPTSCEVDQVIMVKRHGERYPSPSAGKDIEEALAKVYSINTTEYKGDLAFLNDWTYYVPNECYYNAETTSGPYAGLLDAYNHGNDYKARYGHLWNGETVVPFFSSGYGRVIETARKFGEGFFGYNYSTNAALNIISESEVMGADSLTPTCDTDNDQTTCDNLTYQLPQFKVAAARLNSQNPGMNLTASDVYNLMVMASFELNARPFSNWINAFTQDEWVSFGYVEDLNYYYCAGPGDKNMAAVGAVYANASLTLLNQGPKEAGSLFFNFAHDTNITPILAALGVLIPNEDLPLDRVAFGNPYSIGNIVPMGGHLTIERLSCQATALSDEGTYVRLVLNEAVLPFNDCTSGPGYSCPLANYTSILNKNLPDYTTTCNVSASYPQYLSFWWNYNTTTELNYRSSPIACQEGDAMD
Method: (§1) Both assays measure the amount of inorganic phosphate that is released by enzyme action as colorimetrically quantifying using reduction of a phosphomolybdate complex. One phytase unit (PU) is the amount of enzyme which liberates, under the conditions described below, 1 nmol of inorganic phosphate from Na-phytate in one minute at 37° C. One pH2.5 acid phosphatase unit (HFU) is the amount of enzyme which liberates, under the conditions indicated below, 1 nmol of inorganic phosphate from P-nitrophenyl phosphate in one minute.
(§2) pH2.5 acid phosphatase activity was determined in a similar fashion: namely, 0.1 ml of diluted enzyme (diluted in 0.2M Glycine-HCl buffer, pH2.5) was added to 1.9 ml of substrate (30 mM p-nitrophenyl phosphate [Boehringer Mannheim] dissolved in 0.2M Glycine --HCl buffer) pH2.5. After a fifteen-minute incubation at 37° C., the reaction was terminated by addition of an equal volume of 15% TCA (as above). The released orthophosphate was measured using Reagent C (as described above), and the activity determined by a comparison to known diluted phosphate standards (as above) and by using the calculations described above.

[2] = biological target: Aspergillus ficuum phytase (WO 91/05053) (Aspergillus niger, UniProt P34752); settings: reported in WO 91/05053; substrate not given; cited from earlier work
Chain of Aspergillus ficuum phytase (WO 91/05053) (P34752 24-467): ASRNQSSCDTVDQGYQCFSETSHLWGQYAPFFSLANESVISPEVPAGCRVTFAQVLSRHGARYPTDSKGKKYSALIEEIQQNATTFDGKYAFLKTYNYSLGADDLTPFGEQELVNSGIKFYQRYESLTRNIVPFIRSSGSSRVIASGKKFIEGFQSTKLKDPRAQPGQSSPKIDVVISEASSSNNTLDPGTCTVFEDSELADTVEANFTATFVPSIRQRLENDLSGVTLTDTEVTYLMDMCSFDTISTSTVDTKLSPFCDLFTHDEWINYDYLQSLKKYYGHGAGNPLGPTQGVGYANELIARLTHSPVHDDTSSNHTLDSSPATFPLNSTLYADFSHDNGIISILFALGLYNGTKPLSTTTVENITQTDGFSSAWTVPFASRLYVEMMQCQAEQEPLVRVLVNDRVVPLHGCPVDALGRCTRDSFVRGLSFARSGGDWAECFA

[3] = biological target: T2, Aspergillus ficuum phytase, wild type (Ullah, 1988) (Aspergillus niger, UniProt P34752); settings: reported by Ullah 1988; substrate not given; cited from earlier work
T2 construct: Ullah reportedly purified a phytase from wild-type A. ficuum; host or cells: wild-type A. ficuum (extracellular enzyme)
T2 sequence (P34752 20-467): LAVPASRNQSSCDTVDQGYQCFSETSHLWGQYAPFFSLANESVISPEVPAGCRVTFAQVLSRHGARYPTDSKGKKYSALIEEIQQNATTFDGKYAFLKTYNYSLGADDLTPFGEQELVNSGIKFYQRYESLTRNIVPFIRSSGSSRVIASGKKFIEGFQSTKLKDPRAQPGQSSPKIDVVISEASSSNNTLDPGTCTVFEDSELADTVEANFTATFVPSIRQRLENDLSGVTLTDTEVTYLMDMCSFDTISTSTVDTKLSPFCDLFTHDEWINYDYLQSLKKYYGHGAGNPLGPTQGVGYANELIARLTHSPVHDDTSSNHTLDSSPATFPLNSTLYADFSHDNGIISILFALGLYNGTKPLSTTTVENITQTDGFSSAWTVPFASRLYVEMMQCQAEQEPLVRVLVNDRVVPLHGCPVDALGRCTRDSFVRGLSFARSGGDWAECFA

[4] = substrate: O=P(O)(O)O[C@H]1[C@H](OP(=O)(O)O)[C@@H](OP(=O)(O)O)[C@H](OP(=O)(O)O)[C@@H](OP(=O)(O)O)[C@H]1OP(=O)(O)O; test: Apparent Km of purified pH2.5 acid phosphatase (phosphate release, molybdate detection); assay type: biochemical, Aspergillus niger var. awamori; settings: other: 37° C., pH 2.5
Method: as §1, §2

[5] = substrate: O=[N+]([O-])c1ccc(OP(=O)(O)O)cc1; test: purified protein, by the assay type; settings: other: 37° C., pH2.5, pH 2.5

O=P(O)(O)O[C@H]1[C@H](OP(=O)(O)O)[C@@H](OP(=O)(O)O)[C@H](OP(=O)(O)O)[C@@H](OP(=O)(O)O)[C@H]1OP(=O)(O)O [sodium phytate]
Km ([1]; listed as Na-phytate): ~700 µM
Km [1]: ~700 µM

O=P(O)(O)O[C@H]1[C@H](OP(=O)(O)O)[C@@H](OP(=O)(O)O)[C@H](OP(=O)(O)O)[C@@H](OP(=O)(O)O)[C@H]1OP(=O)(O)O [phytate, myo-inositol-hexaphosphate]
Km [2]: ~250 µM
Km [3]: ~40 µM

B1: Aspergillus niger var. awamori strain ALKO243 (ATCC#38854) pH2.5 acid phosphatase, purified native enzyme, SEQ. ID. NO. 4 (Aspergillus awamori) (protein)
chain: T1 sequence (P34755 20-479)
notes: Peptide #1110T is derived from a trypsin digestion of purified native pH2.5 acid phosphatase; endogenous in cells; host or cells: A. niger var. awamori strain ALKO243 (ATCC#38854), purified in house from the cell-free culture medium
Km [4]: 700 µM
Km [5]: 4000 µM

Source: patent US5834286A, “Recombinant cells that express phytate degrading enzymes in desired ratios” (Rohm Enzyme Finland Oy, priority 1995, dated 1998)
